Here are results for three substances from BindingDB's records for doi:10.1039/c2dt30198a (Shanxi University, 2012).

The target in test [1] is Tyrosine-protein phosphatase non-receptor type 9 (PTP-MEG2, Homo sapiens) (UniProt P43378). Description: The assays were performed in 20 mM MOPS buffer, pH 7.2, containing 50 mM NaCl and 2 mM GSH. Compounds were dissolved in DMSO and diluted to various concentration gradients and further diluted for activity evaluations. Ten microliter of complex was mixed to 82 L enzyme solution for 30 min, followed by addition of 2 L of pNPP (0.1 M) substrate to initiat.

Test [2] has as its target T1, Tyrosine-protein phosphatase non-receptor type 1 (Homo sapiens, UniProt P18031).
T1 sequence (P18031 whole entry): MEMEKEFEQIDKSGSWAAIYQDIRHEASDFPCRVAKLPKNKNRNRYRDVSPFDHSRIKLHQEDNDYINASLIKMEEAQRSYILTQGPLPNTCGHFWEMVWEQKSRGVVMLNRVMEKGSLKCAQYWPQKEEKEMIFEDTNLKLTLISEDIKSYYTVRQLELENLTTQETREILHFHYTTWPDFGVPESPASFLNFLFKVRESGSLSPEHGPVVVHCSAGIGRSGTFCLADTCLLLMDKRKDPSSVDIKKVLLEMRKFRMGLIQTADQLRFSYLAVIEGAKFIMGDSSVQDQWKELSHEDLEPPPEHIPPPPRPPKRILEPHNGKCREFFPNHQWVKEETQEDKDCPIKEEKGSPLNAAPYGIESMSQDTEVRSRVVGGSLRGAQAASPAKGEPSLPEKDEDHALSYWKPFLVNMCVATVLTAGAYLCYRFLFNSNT
Description: PTP inhibition assay. To be noted: pH 7.2. The method, then:
(§1) The assays were performed in 20 mM MOPS buffer, pH 7.2, containing 50 mM NaCl and 2 mM GSH. Compounds were dissolved in DMSO and diluted to various concentration gradients and further diluted for activity evaluations. Ten microliter of complex was mixed to 82 L enzyme solution for 30 min, followed by addition of 2 L of pNPP (0.1 M) substrate to initiate the reaction. After 30 min at RT, 6 L of 2 M NaOH was added to terminate the reaction. The absorbance was measured at 405 nm.

Test [3] addresses Tyrosine-protein phosphatase non-receptor type 6 (Homo sapiens, UniProt P29350). Description: PTP inhibition assay. To be noted: pH 7.2. The method, then: as §1
Test [4] addresses T2, Tyrosine-protein phosphatase non-receptor type 11 (Homo sapiens, UniProt Q06124).
T2 sequence (Q06124 whole entry): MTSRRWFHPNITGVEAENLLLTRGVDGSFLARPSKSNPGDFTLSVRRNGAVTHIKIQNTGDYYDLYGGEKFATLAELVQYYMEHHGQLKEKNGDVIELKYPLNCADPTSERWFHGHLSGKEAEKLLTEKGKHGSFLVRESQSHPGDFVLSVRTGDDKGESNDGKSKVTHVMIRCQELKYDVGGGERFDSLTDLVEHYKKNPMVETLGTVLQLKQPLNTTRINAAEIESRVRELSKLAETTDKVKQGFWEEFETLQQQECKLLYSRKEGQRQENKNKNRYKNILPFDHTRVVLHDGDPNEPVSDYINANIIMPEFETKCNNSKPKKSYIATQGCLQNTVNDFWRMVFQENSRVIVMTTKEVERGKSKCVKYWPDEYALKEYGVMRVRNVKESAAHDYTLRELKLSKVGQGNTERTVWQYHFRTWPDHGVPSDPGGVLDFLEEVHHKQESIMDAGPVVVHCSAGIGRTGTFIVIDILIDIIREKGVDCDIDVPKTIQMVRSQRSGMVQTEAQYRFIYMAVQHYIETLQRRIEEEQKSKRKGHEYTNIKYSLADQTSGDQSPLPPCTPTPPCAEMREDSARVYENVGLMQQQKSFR
Description: PTP inhibition assay. To be noted: pH 7.2. The method, then:
as §1

The target of test [5] is T3, Tyrosine-protein phosphatase non-receptor type 2 (Homo sapiens, UniProt P17706).
T3 sequence (P17706 whole entry): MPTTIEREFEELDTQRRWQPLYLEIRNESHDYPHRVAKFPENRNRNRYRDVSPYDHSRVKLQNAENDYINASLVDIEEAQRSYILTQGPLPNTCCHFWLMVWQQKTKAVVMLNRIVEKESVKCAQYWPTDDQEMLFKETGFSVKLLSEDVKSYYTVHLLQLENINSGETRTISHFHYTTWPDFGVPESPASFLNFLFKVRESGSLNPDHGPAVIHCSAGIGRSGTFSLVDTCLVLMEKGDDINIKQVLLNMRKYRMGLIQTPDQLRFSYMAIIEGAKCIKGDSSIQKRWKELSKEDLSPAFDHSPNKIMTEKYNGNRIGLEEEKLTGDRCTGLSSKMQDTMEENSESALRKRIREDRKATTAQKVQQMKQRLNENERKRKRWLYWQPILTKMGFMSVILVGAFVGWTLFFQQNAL
Description: PTP inhibition assay. To be noted: pH 7.2. The method, then:
as §1

Tyrosine-protein phosphatase non-receptor type 9 (PTP-MEG2, Homo sapiens), sequence (P43378 whole entry, looked up): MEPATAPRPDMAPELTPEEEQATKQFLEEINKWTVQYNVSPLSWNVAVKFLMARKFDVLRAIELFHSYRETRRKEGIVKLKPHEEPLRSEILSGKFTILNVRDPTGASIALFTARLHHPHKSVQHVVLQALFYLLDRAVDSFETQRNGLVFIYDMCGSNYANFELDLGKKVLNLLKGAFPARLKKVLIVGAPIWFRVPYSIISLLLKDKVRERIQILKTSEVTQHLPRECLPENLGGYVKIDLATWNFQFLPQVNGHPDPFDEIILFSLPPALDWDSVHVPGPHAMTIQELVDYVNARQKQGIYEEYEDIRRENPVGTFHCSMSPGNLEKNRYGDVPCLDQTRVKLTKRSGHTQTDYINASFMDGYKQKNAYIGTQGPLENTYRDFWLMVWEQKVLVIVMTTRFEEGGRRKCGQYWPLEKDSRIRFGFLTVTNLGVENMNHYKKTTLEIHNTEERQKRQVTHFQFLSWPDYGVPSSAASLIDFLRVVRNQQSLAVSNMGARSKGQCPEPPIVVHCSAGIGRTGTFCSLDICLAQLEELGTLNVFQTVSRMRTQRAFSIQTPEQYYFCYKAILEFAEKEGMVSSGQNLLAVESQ
Tyrosine-protein phosphatase non-receptor type 6, sequence (P29350 whole entry): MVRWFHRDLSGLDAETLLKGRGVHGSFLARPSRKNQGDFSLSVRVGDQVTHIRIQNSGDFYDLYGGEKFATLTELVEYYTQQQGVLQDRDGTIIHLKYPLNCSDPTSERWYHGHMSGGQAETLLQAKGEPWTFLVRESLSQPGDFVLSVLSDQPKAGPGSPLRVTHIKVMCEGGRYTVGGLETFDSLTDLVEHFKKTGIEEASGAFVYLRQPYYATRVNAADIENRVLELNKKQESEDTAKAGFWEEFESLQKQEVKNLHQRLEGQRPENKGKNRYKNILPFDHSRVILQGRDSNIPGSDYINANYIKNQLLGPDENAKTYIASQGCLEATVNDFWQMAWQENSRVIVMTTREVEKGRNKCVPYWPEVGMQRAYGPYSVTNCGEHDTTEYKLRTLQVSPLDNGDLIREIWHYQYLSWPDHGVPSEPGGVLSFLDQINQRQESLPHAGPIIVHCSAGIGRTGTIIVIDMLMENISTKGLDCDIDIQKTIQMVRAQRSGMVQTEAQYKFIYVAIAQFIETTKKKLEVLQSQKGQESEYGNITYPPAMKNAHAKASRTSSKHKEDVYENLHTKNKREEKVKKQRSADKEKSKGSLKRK

Usually IC50 stands for the concentration needed to halve the response being measured. A lower IC50 goes with inhibition by little substance. On to “Bis(4-bromo-2-((phenylimino)methyl)phenolate)-oxovanadium(IV) (4)”, for which the 50% inhibitory concentration (IC50) in test [1] amounted to 2900 nM; in test [2], 690 nM; in test [3], 6500 nM; in test [4], 35000 nM; in test [5], 1900 nM.

Regarding “Bis(4-chloro-2-((phenylimino)methyl)phenolate)-oxovanadium(IV) (3)”, the IC50 in test [1] was found to be 3600 nM; in test [2] it was 800 nM; in test [3] it was 1000 nM; in test [4], 2300 nM; in test [5], 8300 nM.

“Bis(4-nitro-2-((phenylimino)methyl)phenolate)-oxovanadium(IV) (5)”: the IC50 in test [1] worked out at 3200 nM; in test [2], 930 nM; in test [3] it was 2500 nM; in test [4], 2600 nM; in test [5] it was 1400 nM.
